SMILES strings stand for the structures. “And” between values parts separate entries of the source, which are not always exact repeats. Equal entries are not always repeated. Where two headings read alike, the source gives them in different places. Some results are limits rather than exact numbers.

One data set relates to various bromodomains. In words: BROMOscan bromodomain profiling on various bromodomains. Format: binding. The conditions noted are these: result in words. How it is done: 2a) Bromodomain proximity assay. The AlphaScreenTM assay was performed following previous […]
The plate was read on a Tecan Infinite […]
the protein thermal shift assay.
Orange dye at 5 × in a 10- µL reaction.
Lightcycler 480 real-time PCR instrument.
2c) NanoBRET target engagement intracellular BET bromodomain assay. The NanoLuc -BRDT-BD1 […]
(Promega, USA) to replace the corresponding BRD4 bromodomain sequences. The NanoBRET tracer […]
The cells were then preincubated with tested
2d) Metabolic stability assay in liver microsomes. Compounds 3–10, 15, 17 and 20–2 2 (2.0 μM) were incubated in the mouse or human liver microsomes (0.5 mg protein/mL) at 37 °C. The samples are collected […]
The reactions are terminated by adding equivalent volume of ice-cold CH3OH and vortexed. […]
(§1) temperature was ma i ntained at 40 °C.
(acetonitrile containing 0.1% formic acid).
2e) BROMOscan bromodomain profiling. BROMOscan bromodomain profiling was provided by […]
against a proprietary reference immobilized ligand.

Data set [1] can be described thus: Metabolic stability assay in mouse liver microsomes. Format: in vitro ADME. The conditions noted are these: for half-life at 2 μM / t1/2, min MLM: mouse liver microsomes, 37 °C, data >60 min are an extrapolated estimate, 2.0 μM; for half-life at 2 μM: read-out: t1/2, min MLM; for mouse microsomal stability: result in words. Here is the method: (§2) 2d) Metabolic stability assay in liver microsomes. […]
(§3) The reactions are terminated by adding equivalent
(§4) volume of ice-cold CH3OH and vortexed.
as §1
(§5) (acetonitrile containing 0.1% formic acid). […]

Data set [2] is described as follows: Metabolic stability assay in human liver microsomes. Format: in vitro ADME. The conditions noted are these: for half-life at 2 μM / t1/2, min HLM: human liver microsomes, 37 °C, data >60 min are an extrapolated estimate, 2.0 μM; for half-life at 2 μM: read-out: t1/2, min HLM. Here is the method:
as §2, §3, §4, §1, §5

For data set [3], the target named is BRD2-BD2.
Data set [4] addresses T1, BRDT-BD2 (Homo sapiens, UniProt Q58F21). In words: AlphaScreen competition assay with biotinylated JQ1, BRDT-BD2. Format: binding. Details: BRDT-BD2, NP_001717.3 amino acid 269− 380; made in house; host or cells: E. coli NiCo21 (DE3). The conditions noted are these: for BRDT-BD2 activity / affinity: result in words. (In general: Alpha assays give light when donor and acceptor beads are brought close together.)

Data set [5] concerns the target T1, BRDT-BD2. The data set can be described thus: BROMOscan BromoKdELECT competition binding, BRDT-BD2. Details: purchased Eurofins DiscoverX Corp.
The target of data set [6] is BRD4-BD2.
The target in data set [7] is T2, BRD2-BD2 (Homo sapiens, UniProt P25440).
T2 construct: purchased Eurofins DiscoverX Corp
The data set can be described thus: BROMOscan BromoKdELECT competition binding, BRD2-BD2. To be noted: BromoKdELECT dose-response; read-out: Binding Constants (Kd), nM BRD2-BD2.

The target of data set [8] is BRDT-BD1.
The target in data set [9] is T3, BRD4-BD2 (Homo sapiens, UniProt O60885). In words: BROMOscan BromoKdELECT competition binding, BRD4-BD2. More on the design: purchased Eurofins DiscoverX Corp. To be noted: BromoKdELECT dose-response; read-out: Binding Constants (Kd), nM BRD4-BD2.
Data set [10] concerns the target BRD3-BD2.
Data set [11] deals with BRDT-BD2.
In data set [12] the target is T4, BRD4-BD1 (Homo sapiens, UniProt O60885).
T4 construct: amino acid 44− 168; made in house; host or cells: E. coli NiCo21 (DE3)
In words: AlphaScreen competition assay with biotinylated JQ1, BRD4-BD1. Format: binding.

Data set [13] addresses BRD4-BD1.
Data set [14] has as its target T5, BRD3-BD2 (Homo sapiens, UniProt Q15059).
T5 construct: purchased Eurofins DiscoverX Corp
In words: BROMOscan BromoKdELECT competition binding, BRD3-BD2. The conditions noted are these: BromoKdELECT dose-response; read-out: Binding Constants (Kd), nM BRD3-BD2.

The target in data set [15] is BRDT-BD2. The source holds these as a separate data set.
The target of data set [16] is BRD4-BD2. This is another data set of the same source.
The target of data set [17] is T6, BRDT-BD1 (Homo sapiens, UniProt Q58F21).
T6 construct: NP_001717.3 amino acid 21− 137; made in house; host or cells: E. coli NiCo21 (DE3)
In words: AlphaScreen competition assay with biotinylated JQ1, BRDT-BD1. Format: binding.

In data set [18] the target is T3, BRD4-BD2. The data set can be described thus: AlphaScreen competition assay with biotinylated JQ1, BRD4-BD2. Format: binding. More on the design: BD2, NP_055114.1 amino acid 333− 460; made in house; host or cells: E. coli NiCo21 (DE3).
The test system of a further data set is BD2. Details: method as in PMID 32193360. The conditions noted are these: BD2-specific inhibitor; cited from earlier work.
Data set [19] relates to BRD4-BD2. The source holds these as a separate data set.
Data set [20] concerns BRDT-BD1. This is another data set of the same source.
For data set [21] the following is noted: mice; cited from earlier work.
Data set [22] relates to BRD4-BD1. This is another data set of the same source.
Data set [23] relates to BRDT-BD2. The source holds these as a separate data set.
Setting [24] is: AlphaScreen, biotinylated JQ1 as ligand.
The mark [25] stands for this setting: ratio of AlphaScreen IC50 values.
Setting [26] is: AlphaScreen, biotinylated JQ1 as ligand, NE: no effect at 20 µM.

T5 sequence (Q15059 306-415 limits assumed): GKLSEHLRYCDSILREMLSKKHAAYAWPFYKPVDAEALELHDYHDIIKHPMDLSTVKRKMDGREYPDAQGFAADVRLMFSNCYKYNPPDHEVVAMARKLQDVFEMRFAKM
T2 sequence (P25440 344-453 limits assumed): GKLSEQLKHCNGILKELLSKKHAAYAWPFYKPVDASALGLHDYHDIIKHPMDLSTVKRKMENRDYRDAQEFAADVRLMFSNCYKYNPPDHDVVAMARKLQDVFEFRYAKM

For the compound `CNC(=O)c1ccc(C(=O)Nc2cc(NC(=O)c3ccc4c(c3)c(-c3ccc(N)cc3C)nn4C)ccc2C)cc1` [Compound 9], the BROMOscan bromodomain profile result in the data set with various bromodomains is listed as “very weak binding to two bromodomains outside of the BET subfamily”. For the same compound, in [1], the half-life at 2 μM was 1.53 h and the mouse microsomal stability entry is on record as “greater stability in mouse liver microsomes (MLMs) over other hits”. The half-life at 2 μM in data set [2] is 2.5 h. Also, the human microsomal stability entry in data set [2] (result in words) is reported as “high metabolic stability”.
The Kd is the free concentration of one partner at which half of the binding sites on the other are occupied at equilibrium, for simple one-to-one binding. By IC50 is commonly meant the concentration at which inhibition is half-maximal. `CC(=O)Nc1cc(NC(=O)c2ccc3c(c2)c(-c2ccc(N)cc2C)nn3C)ccc1C` [Compound 20]: the BROMOscan bromodomain profile result in the data set on various bromodomains is “potent and selective binding to only the second bromodomains within the BET subfamily”. Besides, the equilibrium dissociation constant (Kd) stood at 0.0078 µM at BRD2-BD2 [3]; 1.3 nM at BRDT-BD2 [5] (BromoKdELECT dose-response, read-out: Binding Constants (Kd), nM BRDT-BD2); 7.8 nM at BRD2-BD2 [7]; 1.6 nM at BRD4-BD2 [9]; 0.002 µM on BRD3-BD2 [10]; 2 nM at BRD3-BD2 [14]. Besides, the Kd on BRDT-BD2 [15] worked out at 0.0013 µM; on BRD4-BD2 [16], 0.0016 µM. Further, the “BRDT-BD2 vs. BRDT-BD1 (BRDT-BD2 selectivity)” value on BRDT-BD2 [4] is given as 2,000. Further, the IC50 was 8 nM on BRDT-BD2 [4] (setting [24]); 0.012 µM at BRD4-BD2 [6]; > 10 µM and 15.8 µM against BRDT-BD1 [8]; 0.008 µM against BRDT-BD2 [11]; 10400 nM at BRD4-BD1 [12] (setting [26]); 10.4 µM against BRD4-BD1 [13]. Further, the concentration for half-maximal inhibition (IC50) is 15800 nM at BRDT-BD1 [17] (setting [26]) and 12 nM on BRD4-BD2 [18] (setting [24]). The “BRDT-BD2 activity / affinity” value at BRDT-BD2 [4] (AlphaScreen) is on record as “no loss in activity”. For the same compound, at BRDT-BD2 [4] (setting [25]), the “BRDT-BD2 vs. BRD4-BD2” value is 1.5. In addition, on BRDT-BD2 [5] (BromoKdELECT dose-response curves), the “more potent than JQ1 at binding BRDT-BD2” value was “more than 20 fold”. The “t1/2, min MLM” value in data set [1] was 1.2 h. Moreover, the “BRD4-BD2 vs. BRD4-BD1 (BRD4-BD2 selectivity)” value on BRD4-BD2 [18] was found to be 860. Also, the “t1/2, min HLM” value in data set [2] was 6.17 h.
On to `CC(=O)Nc1cccc(NC(=O)c2ccc3c(c2)c(-c2ccc(N)cc2C)nn3C)c1` [Compound 21], for which the “BRDT-BD2 vs. BRDT-BD1 (BRDT-BD2 selectivity)” value at BRDT-BD2 [4] is reported as 1,400. Moreover, the IC50 was 14 nM at BRDT-BD2 [4] (setting [24]); 0.021 µM against BRD4-BD2 [6]; > 10 µM and 19.7 µM against BRDT-BD1 [8]; 0.014 µM on BRDT-BD2 [11]; 14100 nM on BRD4-BD1 [12] (setting [26]); 14.1 µM on BRD4-BD1 [13]. Besides, the IC50 on BRDT-BD1 [17] (setting [26]) came out at 19700 nM; at BRD4-BD2 [18] (setting [24]), 21 nM. The “BRDT-BD2 activity / affinity” value at BRDT-BD2 [4] (AlphaScreen) is “minimal effects on potency”. Moreover, at BRDT-BD2 [4] (setting [25]), the “BRDT-BD2 vs. BRD4-BD2” value turned out to be 1.5. For the same compound, the “t1/2, min MLM” value in [1] was 0.15 h. Moreover, the “BRD4-BD2 vs. BRD4-BD1 (BRD4-BD2 selectivity)” value on BRD4-BD2 [18] amounted to 670. The “t1/2, min HLM” value in data set [2] was 3 h.
For `CNC(=O)c1cc(NC(=O)c2ccc3c(c2)c(-c2ccc(N)cc2C)nn3C)ccc1C` [Compound 22], the IC50 was 18 nM at BRDT-BD2 [4]; 0.02 µM against BRD4-BD2 [6]; > 10 µM and 10.7 µM on BRDT-BD1 [8]; 0.018 µM against BRDT-BD2 [11]; 10900 nM at BRD4-BD1 [12]; 10.9 µM at BRD4-BD1 [13]. Further, the IC50 at BRDT-BD1 [17] is 10700 nM; on BRD4-BD2 [18] it was 20 nM. Besides, the “BRDT-BD2 activity / affinity” value at BRDT-BD2 [4] (AlphaScreen) is “minimal effects on potency”. In addition, at BRDT-BD2 [4] (setting [25]), the “BRDT-BD2 vs. BRD4-BD2” value was 1.1. In addition, on BRDT-BD2 [4] (setting [25]), the “BRDT-BD2 vs. BRDT-BD1 (BRDT-BD2 selectivity)” value worked out at 590. Besides, the half-life at 2 μM in [1] is 2.5 h; in data set [2], 7.67 h. Also, the mouse microsomal stability result in [1] is listed as “high mouse microsomal stability”. In addition, on BRD4-BD2 [18] (setting [25]), the “BRD4-BD2 vs. BRD4-BD1 (BRD4-BD2 selectivity)” value is on record as 540.
Consider `CC(=O)Nc1c(F)cc(C(=O)N[C@H]2CC[C@H](O)CC2)cc1O[C@@H](C)c1ccccc1` [GSK046], for which the “selectivity over BD1” value in the data set with BD2 is above 300 fold.
A word on the ΔTm: it is the shift of the melting midpoint relative to a reference. With `Cc1sc2c(c1C)C(c1ccc(Cl)cc1)=N[C@@H](CC(=O)OC(C)(C)C)c1nnc(C)n1-2` [JQ1, reference compound], the “BRDT-BD2 vs. BRD4-BD2” value on BRDT-BD2 [4] (setting [25]) was 0.4. Moreover, the ΔTm at 25 µM turned out to be 7.43 °C in the data set with BRD4-BD2 [19], 3.48 °C in the data set on BRDT-BD1 [20], 7.84 °C in the data set on BRD4-BD1 [22] and 10.3 °C in the data set on BRDT-BD2 [23]. The “bioavailable across the blood-testis boundary” value in data set [21] is on record as 100%. Also, the values for the half-life at 2 μM in [1] and in data set [2] were 0.25 h and 0.1 h, respectively.

Values taken from article PMC7936271, “Discovery and characterization of bromodomain 2–specific inhibitors of BRDT” (Proceedings of the National Academy of Sciences of the …, 2021).
